The values that follow are results of earlier work, collected in patent publication US20110110985A1, “FUNCTIONALIZED NANOMATERIALS FOR CHELATION THERAPIES AND SORBENT DIALYSIS OF TOXINS” (priority 2009, published 2011).

For series [1] the following is noted: given in the first 24 hours.
The conditions of series [2]: given orally to rats.
The conditions of series [3]: day of chelation vs one and two days prior to treatment.

Regarding `O=C(O)CN(CCN(CC(=O)O)CC(=O)O)CCN(CC(=O)O)CC(=O)O` [Ca-DTPA, diethylenetriaminepentaacetic acid], the “effectiveness relative to Zn-DTPA” value in series [1] was 10 fold.

`O=C(O)[C@@H](S)[C@@H](S)C(=O)O` [DMSA, meso-2,3-dimercaptosuccinic acid]: the “change of Ca and Zn in carcass, Fe and Cu in liver, kidney, or brain” value in series [2] is given as “did not significantly change”.

Regarding `O=C(O)CN(CCN(CC(=O)O)CC(=O)O)CC(=O)O` [EDTA, ethylenediamine-tetraacetate], in series [3], the “increase of urinary excretion of Ca” value was 2 fold and the “increase of urinary excretion of Zn” value is 18 fold.
